Reference: patent US8119116B2, “Therapeutics for cancer using 3-bromopyruvate and other selective inhibitors of ATP production” (John Hopkins University School of Medicine, priority 2001, dated 2012)

How the values were obtained:
VX2 tumor slices = experiment: Glycolysis (lactic acid formation) in VX2 tumor slices; format: cell-based, rabbit; details: for inhibition of VX2 tumor glycolysis in the limited screen: 6 mM agent, 6 mM glucose, 37° C., 5 h
Protocol: Glycolysis was assayed by monitoring the formation of lactic acid following the addition of glucose to a medium containing VX2 tumor slices. Specifically, freshly excised tumors were washed 3 times at 4° C. in 20 ml Chance Hess Medium containing 6.2 mM KCl, 154 mM NaCl, and 11 mM NaPi, pH 7.4. Slices, 1 g each, were then prior incubated for 30 min in a Lab-Line incubator-shaker at 37° C. in 2 ml of the same medium while shaking at 50 rpm. Glucose was then added to give a final concentration of 6 mM, after which the incubation/shaking process was continued with 0.2 ml samples being removed every 30 min for up to 2 h. These samples were subjected to centrifugation at 14,000 rpm in an Eppendorf Centrifuge (Model 5415C). Then, aliquots of the supernatant, 0.01 ml, were removed from each sample, diluted with 0.03 ml of water and subjected to lactic acid determination using the kit supplied by Sigma. The latter contains, in addition to lactic dehydrogenase and NAD+, hydrazine, and glycine buffer, pH 9.2. The mixture was incubated for 30 min at 25° C. after which the absorbance due to formation of NADH was determined at 340 nm using a Gilford Model 260 spectrophotometer. To assess the elevation of the glycolytic activity of the VX2 tumor over that of liver tissue, parallel studies were always carried out in an identical manner with 1 g liver slices derived from the host liver. Finally, in those cases where agents were tested for their capacity to inhibit glycolysis, these were introduced into the system at the prior incubation step with all subsequent steps being run in parallel with those described above for the VX2 tumor or liver alone.
The screen included the following 9 compounds: 2-deoxyglucose (2DOG), 2-fluoro-2-deoxyglucose, 6-fluoro-6-deoxyglucose, 3-O-methyl glucose, 5-thio-D-glucose-6-phosphate, L-glucose, D-xylose, D-lyxose, and 3-bromopyruvic acid (3BrPA). The screen was conducted by incubating VX2 tumor slices in a medium containing 6 mM glucose with 6 mM of each of these agents at 37° C. for 5 h. The use of 6 mM glucose in the medium was used to mimic the maximal amount of glucose that might be in the blood in a real in vivo situation.
With the above preliminary data at hand, only two of the 9 compounds screened were studied in more detail. One was 2DOG because under certain conditions it is known to inhibit glycolysis when it is phosphorylated by hexokinase to 2DOG-6-P which cannot be further metabolized. The other compound tested in more detail was 3BrPA because of its effectiveness as a glycolytic inhibitor in the preliminary screen.

AS-30D hepatoma cells = experiment: Hepatoma cell viability by trypan blue; format: cell-based, rat; details: 20 mM, 12 h
Protocol: AS-30D hepatoma cells grown in the peritoneal cavity of Sprague Dawley female rats (see Materials) were adapted to grow in tissue culture in Dulbecco's modified Eagle's medium containing 10% fetal bovine serum. Cells were maintained at 37° C. in a humidified atmosphere containing 5% CO2, and counted in a Neubauer chamber after trypan blue dye addition (cell/dye volume=1/1) by visualization under a Nikon inverted microscope.
The studies described above using the VX2 tumor model for liver cancer predict that 2DOG and 3BrPA may have the capacity to kill hepatoma cells expressing the high glycolytic/high hexokinase phenotype. […] Cell killing was assessed in these experiments by counting those cells in which trypan blue had entered.

Structure (SMILES)	inhibition of VX2 tumor glycolysis in the limited screen (VX2 tumor slices)	further results
O=C[C@H](F)[C@@H](O)[C@H](O)[C@H](O)CO [2-fluoro-2-deoxyglucose]	ineffective	
O=CC[C@@H](O)[C@H](O)[C@H](O)CO [2DOG, 2-deoxyglucose]	ineffective	IC50 (VX2 tumor slices; Oryctolagus cuniculus, 0.5 h, VX2 tumor slices, agent prior incubated 30 min at 37° C., read-out: half maximal inhibition of glycolysis): ~15 mM; concentration for maximal or complete inhibition of glycolysis (VX2 tumor slices; VX2 tumor slices, agent prior incubated 30 min at 37° C.): ~50 mM; maximal inhibition of glycolysis (VX2 tumor slices; VX2 tumor slices, at almost 50 mM): 70%; cells killed (trypan blue uptake) (AS-30D hepatoma cells): about 80%
CO[C@@H]([C@H](O)[C@H](O)CO)[C@@H](O)C=O [3-O-methyl glucose]	ineffective	
O=C[C@H](O)[C@@H](O)[C@H](O)[C@H](S)COP(=O)(O)O [5-thio-D-glucose-6-phosphate]	ineffective	
O=C[C@H](O)[C@@H](O)[C@H](O)[C@H](O)CF [6-fluoro-6-deoxyglucose]	ineffective	
O=C[C@@H](O)[C@@H](O)[C@H](O)CO [D-lyxose]	ineffective	
O=C[C@H](O)[C@@H](O)[C@H](O)CO [D-xylose]	ineffective	
O=C[C@@H](O)[C@H](O)[C@@H](O)[C@@H](O)CO [L-glucose]	ineffective	
